Consider 30 compounds from patent US9464060B2, “Compounds” (TAKEDA PHARMACEUTICAL COMPANY LIMITED, priority 2013, dated 2016).

By pIC50 is commonly meant the negative decadic logarithm of the IC50, by convention in mol/L.

Molecules are shown by their SMILES. pIC50: −log10 of the molar value.

Sequence of LPA5 receptor (Q9H1C0 whole entry): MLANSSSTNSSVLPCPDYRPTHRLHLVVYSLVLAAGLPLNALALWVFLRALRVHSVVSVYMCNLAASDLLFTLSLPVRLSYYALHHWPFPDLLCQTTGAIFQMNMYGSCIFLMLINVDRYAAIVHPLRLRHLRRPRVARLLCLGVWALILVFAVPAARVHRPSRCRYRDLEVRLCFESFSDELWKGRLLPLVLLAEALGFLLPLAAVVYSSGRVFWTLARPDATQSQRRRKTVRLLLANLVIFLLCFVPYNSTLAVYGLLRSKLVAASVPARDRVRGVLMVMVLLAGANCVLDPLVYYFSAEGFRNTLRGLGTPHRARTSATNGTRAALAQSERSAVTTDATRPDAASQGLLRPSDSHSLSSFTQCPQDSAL
Sequence of human LPA1 receptors (Q92633 whole entry): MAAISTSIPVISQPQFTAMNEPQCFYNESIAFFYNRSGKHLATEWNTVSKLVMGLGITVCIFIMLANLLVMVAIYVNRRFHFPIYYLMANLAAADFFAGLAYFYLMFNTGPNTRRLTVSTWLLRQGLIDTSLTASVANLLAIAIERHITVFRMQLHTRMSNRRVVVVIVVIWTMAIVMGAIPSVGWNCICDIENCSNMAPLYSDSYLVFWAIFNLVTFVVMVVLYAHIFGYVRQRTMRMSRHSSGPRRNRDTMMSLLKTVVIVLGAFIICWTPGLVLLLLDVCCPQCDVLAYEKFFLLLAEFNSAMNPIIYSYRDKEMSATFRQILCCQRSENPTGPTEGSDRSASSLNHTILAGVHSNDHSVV

The first test deals with LPA5 receptor (Homo sapiens (Human), UniProt Q9H1C0). Nature of the test: In vitro LPA5 receptor assay (LPA-driven intracellular calcium release, FLIPR). Particulars: RH7777 cells expressing human LPA5 receptors; LPA at EC90. The test is classed as cell-based. How it is done:
In Vitro LPA5 Receptor Assay
Engagement of the LPA5 receptor by its ligand, oleoyl-L-α-lysophosphatidic acid (LPA), leads to the release of intracellular stores of calcium into the cytoplasm mediated through a Gq-driven increase in inositol triphosphate (IP3) levels. Gq is a heterotrimeric G protein subunit that activates phospholipase C.
The ability of test compounds to prevent LPA-driven intracellular release of stored calcium from RH7777 cells expressing human LPA5 receptors was assayed by stimulating the cells with LPA in the presence of various test compounds to measure the test compounds'antagonism, i.e. activity in vitro.
(§1) Approximately 10,000 cells in normal culture medium (Minimal Essential Media, 10% Foetal Calf Serum) were dispensed per assay well in a black clear bottom poly-D-lysine coated 384 well plate (Corning). Cells were allowed to settle for thirty minutes at room temperature before being incubated overnight at 37° C., 5% CO2. Sixteen to twenty hours after dispensing, the cells were loaded with a calcium-sensitive fluorescent dye by replacing the culture medium with assay buffer (1× Hanks buffered saline, 25 mM HEPES, 0.1% w/v fatty acid free BSA (bovine serum albumin), pH7.4) containing 1.25 mM probenecid and 1× Calcium 5 Reagent (Molecular Devices). Cells were incubated at 37° C. for one hour to allow for dye uptake.
To test for antagonist activity, test compounds at a final concentration range between 0.32 nM-10 μM (diluted in assay buffer) were added to the assay wells and allowed to incubate for fifteen minutes. […] Ligand-dependent changes in intracellular calcium levels were determined by measuring changes in fluorescence of the dye over […] following excitation over […].
For orientation: Calcium assays in cells follow changes in intracellular calcium, usually with a dye or a luminescent sensor.
Take `O=C(O)c1ccc(CN(CCCc2cccc(F)c2)C(=O)c2ccc(Oc3ccccc3F)cc2)cc1` [Example 17, 4-((4-(2-Fluorophenoxy)-N-(3-(3-fluorophenyl)propyl)benzamido)methyl)benzoic acid]: the pIC50 was 9.00. Consider `Cc1ccccc1Oc1ccc(C(=O)N(Cc2ccc(C(=O)O)cc2)CC2CCC2)cc1` [Example 23, 4-((N-(Cyclobutylmethyl)-4-(o-tolyloxy)benzamido)methyl)benzoic acid], for which the pIC50 was 7.36. The same measure, in the same setting: next, `CCN(Cc1ccc(C(=O)O)cc1)C(=O)c1ccc(Oc2ccccc2F)cc1` [Example 1, 4-((N-Ethyl-4-(2-fluorophenoxy)benzamido)methyl)benzoic acid]: 6.08; `O=C(O)c1ccc(CN(CCc2ccccc2)C(=O)c2ccc(Oc3ccccc3C(F)(F)F)cc2)cc1` [Example 26, 4-((N-Phenethyl-4-(2-(trifluoromethyl)phenoxy)benzamido)-methyl)benzoic acid]: 6.59. Still for that read-out and setting: with `O=C(O)c1ccc(CN(Cc2ccccc2)C(=O)c2ccc(Oc3c(F)cccc3F)cc2)cc1` [Example 39, 4-((N-Benzyl-4-(2,6-difluorophenoxy)benzamido)methyl)benzoic acid] the figure was 7.96; with `O=C(O)c1ccc(CN(Cc2ccccc2)C(=O)c2ccc(Oc3c(F)cccc3Cl)cc2)cc1` [Example 44, 4-((N-Benzyl-4-(2-chloro-6-fluorophenoxy)benzamido)-methyl)benzoic acid], 7.96; with `COC1CC(CN(Cc2ccc(C(=O)O)cc2)C(=O)c2ccc(Oc3ccccc3F)cc2)C1` (stereo not shown) [Example 7, 4-((4-(2-Fluorophenoxy)-N-((3-methoxycyclobutyl)methyl)-benzamido)methyl)benzoic acid], 7.51. Same read-out and setting: with `CCOc1ccccc1Oc1ccc(C(=O)N(Cc2ccc(C(=O)O)cc2)CC2CC2)cc1` [Example 34, 4-((N-(Cyclopropylmethyl)-4-(2-ethoxyphenoxy)-benzamido)methyl)benzoic acid] the figure was 6.34; with `O=C(O)c1ccc(CN(Cc2ccccc2)C(=O)c2ccc(OCc3ccccc3F)cc2)cc1` [Example 53, 4-((N-Benzyl-4-((2-fluorobenzyl)oxy)benzamido)methyl)benzoic acid], 7.24; with `COc1ccc(Oc2ccc(C(=O)N(CCc3ccccc3)Cc3ccc(C(=O)O)cc3)cc2)cc1` [Example 49, 4-((4-(4-Methoxyphenoxy)-N-phenethylbenzamido)methyl)benzol acid], 5.34. In the case of `Cc1cccc(F)c1Oc1ccc(C(=O)N(Cc2ccc(C(=O)O)cc2)CC2CCC2)cc1` [Example 41, 4-((N-(Cyclobutylmethyl)-4-(2-fluoro-6-methylphenoxy)benzamido)methyl)benzoic acid], the pIC50 was 7.05. For `O=C(O)c1ccc(CN(CCCCc2ccccc2)C(=O)c2ccc(Oc3ccccc3F)cc2)cc1` [Example 21, 4-((4-(2-Fluorophenoxy)-N-(4-phenylbutyl)-benzamido)methyl)benzoic acid], the pIC50 is 7.96. `O=C(O)c1ccc(CN(CCCc2ccccc2F)C(=O)c2ccc(Oc3ccccc3F)cc2)cc1` [Example 16, 4-((4-(2-Fluorophenoxy)-N-(3-(2-fluorophenyl)propyl)benzamido)methyl)benzoic acid]: the pIC50 is 9.00.

On to `O=C(O)c1ccc(CN(CCC2CC2)C(=O)c2ccc(Oc3c(F)cccc3Cl)cc2)cc1` [Example 43, 4-((4-(2-Chloro-6-fluorophenoxy)-N-(2-cyclopropylethyl)-benzamido)methyl)benzoic acid], for which the pIC50 was 7.24.

Turning to `O=C(O)c1ccc(CN(CC2CC2)C(=O)c2ccc(OCc3ccccc3F)cc2)cc1` [Example 51, 4-((N-(Cyclopropylmethyl)-4-((2-fluorobenzyl)oxy)benzamido)-methyl)benzoic acid], the pIC50 was 7.28. The same measure, in the same setting: with `COc1cccc(Oc2ccc(C(=O)N(CCc3ccccc3)Cc3ccc(C(=O)O)cc3)cc2)c1` [Example 48, 4-((4-(3-Methoxyphenoxy)-N-phenethylbenzamido)methyl)benzoic acid] the figure was 5.48; with `O=C(O)c1ccc(CN(CCc2ccccc2)C(=O)c2ccc(Oc3cccc(Cl)c3)cc2)cc1` [Example 50, 4-((4-(3-Chlorophenoxy)-N-phenethylbenzamido)methyl)benzoic acid], 5.44; with `O=C(O)c1ccc(CN(CCC2CC2)C(=O)c2ccc(Oc3ccccc3F)cc2)cc1` [Example 9, 4-((N-(2-Cyclopropylethyl)-4-(2-fluorophenoxy)benzamido)-methyl)benzoic acid], 7.82. In the case of `O=C(O)c1ccc(CN(CCC2CCC2)C(=O)c2ccc(Oc3ccccc3F)cc2)cc1` [Example 10, 4-((N-(2-Cyclobutylethyl)-4-(2-fluorophenoxy)benzamido)-methyl)benzoic acid], the pIC50 was 7.32. On the same count and under the same terms, next, `O=C(O)c1ccc(CN(Cc2ccccc2)C(=O)C2CCC(Oc3ccccc3F)CC2)cc1` (stereo not shown) [Example 55, 4-((N-Benzyl-4-(2-fluorophenoxy)cyclohexanecarboxamido)-methyl)benzoic acid]: 6.16; `O=C(O)c1ccc(CN(CC(F)F)C(=O)c2ccc(Oc3ccccc3F)cc2)cc1` [Example 2, 4-((N-(2,2-Difluoroethyl)-4-(2-fluorophenoxy)benzamido)-methyl)benzoic acid]: 6.16. On to `O=C(O)c1ccc(CN(CC2CC2)C(=O)c2ccc(Oc3c(F)cccc3Cl)cc2)cc1` [Example 42, 4-((4-(2-Chloro-6-fluorophenoxy)-N-(cyclopropylmethyl)-benzamido)methyl)benzoic acid], for which the pIC50 is 7.77. Take `N#Cc1ccccc1Oc1ccc(C(=O)N(Cc2ccccc2)Cc2ccc(C(=O)O)cc2)cc1` [Example 27, 4-((N-Benzyl-4-(2-cyanophenoxy)benzamido)methyl)benzoic acid]: the pIC50 is 6.70. As to `O=C(O)c1ccc(CN(CC2CCC2)C(=O)c2ccc(Oc3ccccc3F)cc2)cc1` [Example 6, 4-((N-(Cyclobutylmethyl)-4-(2-fluorophenoxy)benzamido)-methyl)benzoic acid], the pIC50 is 7.62.

Take `O=C(O)c1ccc(CN(CC2CC2)C(=O)c2ccc(Oc3ccccc3Cl)cc2)cc1` [Example 35, 4-((4-(2-Chlorophenoxy)-N-(cyclopropylmethyl)benzamido)-methyl)benzoic acid]: the negative logarithm of the IC50 (pIC50) is 8.15. Same read-out and setting: next, `O=C(O)c1ccc(CN(Cc2ccccc2F)C(=O)c2ccc(Oc3ccccc3F)cc2)cc1` [Example 12, 4-((N-(2-Fluorobenzyl)-4-(2-fluorophenoxy)benzamido)-methyl)benzoic acid]: 8.05; `O=C(O)c1ccc(CN(CC2CCC2)C(=O)c2ccc(OCc3ccccc3F)cc2)cc1` [Example 52, 4-((N-(Cyclobutylmethyl)-4-((2-fluorobenzyl)oxy)benzamido)-methyl)benzoic acid]: 6.43; `COc1ccccc1O[C@H]1CC[C@H](C(=O)N(Cc2ccccc2)Cc2ccc(C(=O)O)cc2)CC1` [Example 56, trans-4-((N-Benzyl-4-(2-methoxyphenoxy)cyclohexanecarboxamido)methyl)benzoic acid]: 6.74. As to `COc1cccc(CN(Cc2ccc(C(=O)O)c(F)c2)C(=O)c2ccc(Oc3ccccc3F)cc2)c1` [Example 59, 2-Fluoro-4-((4-(2-fluorophenoxy)-N-(3-methoxybenzyl)benzamido)methyl)benzoic acid], the pIC50 is 8.22. `O=C(O)c1ccc(CN(CCc2ccccc2)C(=O)c2ccc(Oc3ccccc3F)cc2)cc1` [Example 15, 4-((4-(2-Fluorophenoxy)-N-phenethylbenzamido)methyl)benzoic acid]: the pIC50 was 6.92.

The target of the next test is human LPA1 receptors (Homo sapiens (Human), UniProt Q92633). Put plainly: In vitro LPA1 receptor assay (LPA-driven intracellular calcium release, FLIPR). The class given is cell-based. The conditions noted are these: RH7777 cells expressing human LPA1 receptors; LPA at EC80. The method, then:
In Vitro LPA1 Receptor Assay
Engagement of the LPA1 receptor by its ligand, oleoyl-L-α-lysophosphatidic acid (LPA), leads to the release of intracellular stores of calcium into the cytoplasm mediated through a Gq-driven increase in inositol triphosphate (IP3) levels. Gq is a heterotrimeric G protein subunit that activates phospholipase C.
The ability of test compounds to prevent LPA-driven intracellular release of stored calcium from RH7777 cells expressing human LPA1 receptors was assayed by stimulating the cells with LPA in the presence of various test compounds to measure the test compounds' antagonism, i.e. activity in vitro.
as §1, with “(Dulbecco's Modified Eagle” for “(Minimal Essential”, “collagen” for “poly-D-lysine”, “(Beckton Dickinson).” for “(Corning).”
To test for antagonist activity, test compounds at a final concentration range between 0.32 nM-10 μM (diluted in assay buffer) were added to the assay wells and allowed to incubate for twenty five minutes. […] Ligand-dependent changes in intracellular calcium levels were determined by measuring changes in fluorescence of the dye over […] following excitation over […].
Turning to `O=C(O)c1ccc(CN(CCCc2cccc(F)c2)C(=O)c2ccc(Oc3ccccc3F)cc2)cc1` [Example 17, 4-((4-(2-Fluorophenoxy)-N-(3-(3-fluorophenyl)propyl)benzamido)methyl)benzoic acid], the pIC50 is 9.40.
